Measured values taken from ChEMBL document CHEMBL1201862, “PubChem BioAssay data set” (2004).
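Assay format: 96-well plates, 48-hour exposure. Abbreviation: GI50, concentration required for 50% inhibition of growth.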 Active and inactive are the calls of the source. Cut-off read from the data, not from the text of the source: active = GI50 up to about 1.1 µM and inactive = higher.

Columns and labels:
Assay in all cases: NCI anticancer screen, dose series, 48 h
A498 = test system: A498
A549 = test system: A549
CCRF-CEM = test system: CCRF-CEM
COLO 205 = test system: COLO 205
EKVX = test system: EKVX
HOP-62 = test system: HOP-62
M14 = test system: M14
NCI-H226 = test system: NCI-H226
NCI-H460 = test system: NCI-H460
OVCAR-5 = test system: OVCAR-5
RPMI-8226 = test system: RPMI-8226
SK-MEL-28 = test system: SK-MEL-28
SNB-75 = test system: SNB-75
SR = test system: SR
SW-620 = test system: SW-620
U-251 = test system: U-251
UO-31 = test system: UO-31
SK-OV-3 = test system: SK-OV-3
Hs-578T = test system: Hs-578T

Measured: GI50

COc1cc(C(C)c2cc3c(cc2OCCN)OCO3)cc(OC)c1OC (configuration not stated)
inactive: A498 > 100 µM | A549 > 100 µM | CCRF-CEM 35.2 µM | COLO 205 > 100 µM | EKVX 36.2 µM | HOP-62 > 100 µM | M14 > 100 µM | NCI-H226 32.1 µM | NCI-H460 > 100 µM | OVCAR-5 46.6 µM | RPMI-8226 37.3 µM | SK-MEL-28 28.2 µM | SNB-75 18.5 µM | SR 40.4 µM | SW-620 > 100 µM | U-251 42.5 µM | UO-31 50.8 µM

O=C(NNC(=S)NCc1ccccc1)c1csc(NC(=S)NC2CCCCC2)n1
inactive: A498 42 µM | A549 37.2 µM | CCRF-CEM 46.2 µM | COLO 205 18.2 µM | EKVX 19.2 µM | HOP-62 64.1 µM | M14 32.6 µM | NCI-H226 5.93 µM | OVCAR-5 > 100 µM | RPMI-8226 25.9 µM | SK-OV-3 50.6 µM | SR 31.5 µM | SW-620 32.5 µM | U-251 33.3 µM | UO-31 21.8 µM

CCCCN1C(=O)c2c(Br)sc(Br)c2C1=O
inactive: A498 50.6 µM | A549 25.8 µM | CCRF-CEM 26.3 µM | COLO 205 19.5 µM | EKVX 70.1 µM | HOP-62 26.6 µM | M14 31.1 µM | NCI-H226 51.1 µM | NCI-H460 31.6 µM | OVCAR-5 30.4 µM | RPMI-8226 29.3 µM | SK-MEL-28 43.9 µM | SK-OV-3 37.6 µM | SNB-75 29.5 µM | SR 21.2 µM | SW-620 24.8 µM | U-251 39.1 µM | UO-31 33.9 µM

CC(C)Oc1ccc2c(c1)OCC1Cc3ccccc3OC21 (configuration not stated)
inactive: A498 > 100 µM | A549 > 100 µM | CCRF-CEM > 100 µM | COLO 205 > 10 µM | EKVX 75.9 µM | HOP-62 > 100 µM | M14 > 100 µM | NCI-H226 > 100 µM | OVCAR-5 > 100 µM | RPMI-8226 52.8 µM | SK-OV-3 > 100 µM | SR > 100 µM | SW-620 > 100 µM | U-251 > 100 µM | UO-31 > 100 µM

N=C(N)Cn1cnc2ccccc21
inactive: A498 > 100 µM | A549 > 100 µM | CCRF-CEM > 100 µM | COLO 205 > 100 µM | EKVX > 100 µM | HOP-62 > 100 µM | M14 > 100 µM | NCI-H226 > 100 µM | NCI-H460 > 100 µM | OVCAR-5 > 100 µM | RPMI-8226 > 100 µM | SK-MEL-28 > 100 µM | SK-OV-3 > 100 µM | SNB-75 > 100 µM | SW-620 > 100 µM | U-251 > 100 µM | UO-31 > 100 µM

Cn1c(C2CCCc3c2c2ccccc2n3C)cc2ccccc21 (configuration not stated)
inactive: A549 128 µM | CCRF-CEM 140 µM | COLO 205 140 µM | EKVX 115 µM | HOP-62 286 µM | NCI-H226 216 µM | NCI-H460 125 µM | OVCAR-5 136 µM | SK-MEL-28 114 µM | SK-OV-3 100 µM | SR 71.9 µM | SW-620 78 µM | U-251 174 µM

CC1=NNC(=O)[C@H]2[C@H]1CCC1[C@@H]2CC[C@]2(C)[C@@H](O)CC[C@@H]12 (some centres not stated)
inactive: A498 > 100 µM | A549 > 100 µM | CCRF-CEM > 100 µM | COLO 205 > 100 µM | EKVX > 100 µM | HOP-62 > 100 µM | Hs-578T > 100 µM | M14 > 100 µM | NCI-H226 > 100 µM | NCI-H460 > 100 µM | OVCAR-5 > 100 µM | RPMI-8226 > 100 µM | SK-MEL-28 > 100 µM | SK-OV-3 > 100 µM | SNB-75 12.6 µM | SW-620 > 100 µM | U-251 > 100 µM | UO-31 > 100 µM

COc1cc2ccnc([C@@H](OC(=O)c3ccccc3)c3ccc(OC)c(OC)c3OC)c2cc1OC
inactive: A498 36.1 µM | A549 47.1 µM | CCRF-CEM 53.2 µM | COLO 205 48.5 µM | EKVX > 100 µM | M14 78.3 µM | NCI-H226 35.5 µM | NCI-H460 33.6 µM | OVCAR-5 23.8 µM | RPMI-8226 54.3 µM | SK-MEL-28 59.6 µM | SK-OV-3 > 100 µM | SNB-75 21.5 µM | SW-620 36.5 µM | U-251 37.5 µM | UO-31 18.9 µM

CC(SC(=S)Nc1cccc(F)c1)C(=O)O (configuration not stated)
inactive: A498 26.7 µM | A549 31.7 µM | CCRF-CEM 21.2 µM | COLO 205 > 10 µM | EKVX 51.2 µM | HOP-62 18.3 µM | M14 16.8 µM | NCI-H226 20.1 µM | NCI-H460 26.2 µM | OVCAR-5 46.5 µM | RPMI-8226 15.6 µM | SK-MEL-28 16.1 µM | SR 13.8 µM | SW-620 33.3 µM | U-251 28.9 µM | UO-31 24.9 µM

O=S(=O)(c1ccccc1)n1c(C(O)c2ccncc2)cc2ccccc21 (configuration not stated)
inactive: A498 38.7 µM | A549 31.3 µM | CCRF-CEM 35.6 µM | COLO 205 39.7 µM | EKVX 38.5 µM | HOP-62 > 100 µM | M14 32.7 µM | NCI-H226 27 µM | NCI-H460 26.2 µM | OVCAR-5 > 100 µM | RPMI-8226 27.1 µM | SK-MEL-28 55.1 µM | SK-OV-3 44.4 µM | SNB-75 34 µM | SR 38.5 µM | SW-620 32 µM | U-251 41 µM | UO-31 17.3 µM

Cc1c2c(ccc3ccccc32)c[n+]2ccccc12
inactive: A549 1.44 µM | CCRF-CEM 11 µM | COLO 205 13 µM | HOP-62 3.23 µM | M14 19.7 µM | NCI-H226 5.3 µM | NCI-H460 > 10 µM | OVCAR-5 55.7 µM | RPMI-8226 32.1 µM | SK-MEL-28 15.7 µM | SNB-75 4.21 µM | SR 4.16 µM | SW-620 5.5 µM | U-251 2.03 µM | UO-31 20.9 µM

Cc1nnc2n1N=C(CC(=O)c1ccc(O)cc1O)CN2N
inactive: A498 > 100 µM | A549 > 100 µM | CCRF-CEM > 100 µM | COLO 205 19.2 µM | EKVX > 100 µM | HOP-62 > 100 µM | M14 > 100 µM | NCI-H460 38.7 µM | OVCAR-5 > 100 µM | SK-MEL-28 > 100 µM | SK-OV-3 > 100 µM | SW-620 14.9 µM | U-251 > 100 µM | UO-31 > 100 µM

CC1=C(C(=O)NNC(=O)Cc2ccccc2)CC(C(=O)NNC(=O)Cc2ccccc2)=C(C)N1
inactive: A498 > 100 µM | A549 > 100 µM | COLO 205 > 100 µM | EKVX > 100 µM | HOP-62 > 100 µM | M14 > 100 µM | NCI-H226 > 100 µM | NCI-H460 > 100 µM | OVCAR-5 > 100 µM | SK-MEL-28 > 100 µM | SK-OV-3 > 100 µM | SNB-75 > 100 µM | SW-620 > 100 µM | U-251 > 100 µM | UO-31 > 100 µM
